For 12 compounds, IC50 results are on record in patent US11981671B2, “Bicyclic pyrazolyl amines as CDK2 inhibitors” (Incyte Corporation, priority 2021, dated 2024).

What is called IC50 is the concentration at which inhibition is half-maximal.

The target of the assay is CDK2/Cyclin E1 (Homo sapiens (Human), UniProt P24941). Put plainly: CDK2/Cyclin E1 HTRF enzyme activity assay. In kind it is biochemical. Particulars: 1 mM ATP; CDK2/Cyclin E1 0.25 nM; 60 minutes at room temperature. The protocol: Example A. CDK2/Cyclin E1 HTRF Enzyme Activity Assay
CDK2/Cyclin E1 enzyme activity assays utilize full-length human CDK2 co-expressed as N-terminal GST-tagged protein with FLAG-Cyclin E1 in a baculovirus expression system (Carna Product Number 04-165). Assays were conducted in white 384-well polystyrene plates in a final reaction volume of 8 μL. CDK2/Cyclin E1 (0.25 nM) was incubated with the compounds of the Examples (40 nL serially diluted in DMSO) in the presence of ATP (50 μM or 1 mM) and 50 nM ULight™-labeled eIF4E-binding protein 1 (THR37/46) peptide (PerkinElmer) in assay buffer (containing 50 mM HEPES pH 7.5, 1 mM EGTA, 10 mM MgCl2, 2 mM DTT, 0.05 mg/mL BSA, and 0.01% Tween 20) for 60 minutes at room temperature. The reactions were stopped by the addition of EDTA and Europium-labeled anti-phospho-4E-BP1 antibody (PerkinElmer), for a final concentration of 15 mM and 1.5 nM, respectively. HTRF signals were read after 1 hour at room temperature on a PHERAstar FS plate reader (BMG Labtech). Data was analyzed with IDBS XLFit and GraphPad Prism 5.0 software using a three or four parameter dose response curve to determine IC50 for each compound.

For the compound `Cc1cc(-c2c(-c3cn[nH]c3)ccn3nc(Nc4ccnc5ccccc45)nc23)c(F)cc1C#N` [Example 7, 4-(7-(1H-Pyrazol-4-yl)-2-(quinolin-4-ylamino)-[1,2,4]triazolo[1,5-a]pyridin-8-yl)-5-fluoro-2-methylbenzonitrile], the IC50 was no more than 10 nM.

For the compound `Cc1c(Nc2nc3c(OC(C)C)c(-c4cn[nH]c4)ncn3n2)ccc2nccn12` [Example 11, 8-Isopropoxy-N-(5-methylimidazo[1,2-a]pyridin-6-yl)-7-(1H-pyrazol-4-yl)-[1,2,4]triazolo[1,5-c]pyrimidin-2-amine], the IC50 was no more than 10 nM.

With `CC(C)Oc1c(-c2cn[nH]c2)ncn2nc(Nc3ccc(S(C)(=O)=O)cc3F)nc12` [Example 12, N-(2-Fluoro-4-(methylsulfonyl)phenyl)-8-isopropoxy-7-(1H-pyrazol-4-yl)-[1,2,4]triazolo[1,5-c]pyrimidin-2-amine], the half-inhibitory concentration (IC50) was no more than 10 nM. To `Cc1nccc(Nc2nc3c(-c4ccc5c(cnn5C)c4)c(-c4cn[nH]c4)ccn3n2)c1C` [Example 3, N-(2,3-Dimethylpyridin-4-yl)-8-(1-methyl-1H-indazol-5-yl)-7-(1H-pyrazol-4-yl)-[1,2,4]triazolo[1,5-a]pyridin-2-amine] belongs no more than 10 nM.

Take `Cc1cc(-c2c(-c3cn[nH]c3)ccn3nc(Nc4ccnc(C)c4C)nc23)c(F)cn1` [Example 6, N-(2,3-Dimethylpyridin-4-yl)-8-(5-fluoro-2-methylpyridin-4-yl)-7-(1H-pyrazol-4-yl)-[1,2,4]triazolo[1,5-a]pyridin-2-amine]: the IC50 is no more than 10 nM.

Compound `Cc1nccc(Nc2nc3c(-c4ccc(CO)cc4F)c(-c4cn[nH]c4)ccn3n2)c1C` [Example 4, (4-(2-((2,3-Dimethylpyridin-4-yl)amino)-7-(1H-pyrazol-4-yl)-[1,2,4]triazolo[1,5-a]pyridin-8-yl)-3-fluorophenyl)methanol] showed an IC50 of no more than 10 nM.

`Cc1nccc(Nc2nc3c(-c4cc(C#N)ccc4F)c(-c4cn[nH]c4)ccn3n2)c1C` [Example 2, 3-(2-((2,3-Dimethylpyridin-4-yl)amino)-7-(1H-pyrazol-4-yl)-[1,2,4]triazolo[1,5-a]pyridin-8-yl)-4-fluorobenzonitrile] yielded a 50% inhibitory concentration (IC50) of no more than 10 nM. Then `Cc1c(Nc2nc3c(OC(C)C)c(-c4cn[nH]c4)ncn3n2)ccnc1CO` [Example 9, (4-((8-Isopropoxy-7-(1H-pyrazol-4-yl)-[1,2,4]triazolo[1,5-c]pyrimidin-2-yl)amino)-3-methylpyridin-2-yl)methanol], with no more than 10 nM; and `Cc1c(Nc2nc3c(OC(C)C)c(-c4cn[nH]c4)ncn3n2)ccnc1CN(C)C` [Example 8, N-(2-((Dimethylamino)methyl)-3-methylpyridin-4-yl)-8-isopropoxy-7-(1H-pyrazol-4-yl)-[1,2,4]triazolo[1,5-c]pyrimidin-2-amine], with no more than 10 nM. Then `Cc1nccc(Nc2nc3c(OC(C)C)c(-c4cn[nH]c4)ncn3n2)c1C` [Example 10, N-(2,3-Dimethylpyridin-4-yl)-8-isopropoxy-7-(1H-pyrazol-4-yl)-[1,2,4]triazolo[1,5-c]pyrimidin-2-amine], with no more than 10 nM; and `Cc1nccc(Nc2nc3c(-c4ccc(CN5CCCC5)c(F)c4)c(-c4cn[nH]c4)ccn3n2)c1C` [Example 5, N-(2,3-Dimethylpyridin-4-yl)-8-(3-fluoro-4-(pyrrolidin-1-ylmethyl)phenyl)-7-(1H-pyrazol-4-yl)-[1,2,4]triazolo[1,5-a]pyridin-2-amine], with no more than 10 nM. To `Cc1nccc(Nc2nc3c(-c4ccc5c(c4)oc(=O)n5C)c(-c4cn[nH]c4)ccn3n2)c1C` [Example 1, 6-(2-((2,3-Dimethylpyridin-4-yl)amino)-7-(1H-pyrazol-4-yl)-[1,2,4]triazolo[1,5-a]pyridin-8-yl)-3-methylbenzo[d]oxazol-2(3H)-one] belongs no more than 10 nM.
